The source of these data is patent publication US5395609A, “Synthetic peptides for use in tumor detection” (Antisoma Limited, priority 1989, dated 1995).

This assay has as its system metastatic lesions of pelvic melanoma. Kind of assay: Imaging of metastatic lesions in a human patient with pelvic melanoma after intravenous radiolabelled peptide. The format is in vivo. As to the method:
100 micrograms of the peptide […] labelled with technetium were administered intravenously as one single dose to a human patient with a pelvic melanoma which has metastrasised to the liver.

No end group written: not given here.

On to “RGDSCRGDSY labelled with technetium: peptide RGDSCRGDSY labelled with technetium (also: labelled with technetium)”, for which, for the setting “100 micrograms i.v. single dose, FIG. 2”, the “uptake of radiolabelled peptide at metastatic lesions, early view” value is reported as “various sites of uptake (arrow) which correspond to the known metastatic lesions”. Moreover, the “retention of radiolabelled peptide by metastatic lesions” value (100 micrograms i.v., one hour later, FIG. 3) is on record as “retention of the radiolabelled peptide by the metastatic lesions”.
